Key:
Experiment in all cases: biochemical
Assay type in all cases: binding
[1] = target: 468 kinases including some pathogenic mutants (Homo sapiens, UniProt Q13470); settings: TNK1 (Entrez TNK1), 100 nM; read-out: Percent Control
[2] = target: 468 kinases including some pathogenic mutants (Homo sapiens, UniProt Q86UE8); settings: TLK2 (Entrez TLK2), 1000 nM; read-out: Percent Control
[3] = target: 468 kinases including some pathogenic mutants (Homo sapiens, UniProt P36894); settings: BMPR1A (Entrez BMPR1A), 100 nM; read-out: Percent Control
[4] = target: 468 kinases including some pathogenic mutants (Homo sapiens, UniProt Q9UM73, C1156Y); settings: read-out: Percent Control
[5] = target: 468 kinases including some pathogenic mutants (Homo sapiens, UniProt Q8N4C8); settings: MINK (Entrez MINK1), 100 nM; read-out: Percent Control
468 kinases including some pathogenic mutants (Homo sapiens, UniProt Q8N4C8), sequence (Q8N4C8 whole entry, change not shown): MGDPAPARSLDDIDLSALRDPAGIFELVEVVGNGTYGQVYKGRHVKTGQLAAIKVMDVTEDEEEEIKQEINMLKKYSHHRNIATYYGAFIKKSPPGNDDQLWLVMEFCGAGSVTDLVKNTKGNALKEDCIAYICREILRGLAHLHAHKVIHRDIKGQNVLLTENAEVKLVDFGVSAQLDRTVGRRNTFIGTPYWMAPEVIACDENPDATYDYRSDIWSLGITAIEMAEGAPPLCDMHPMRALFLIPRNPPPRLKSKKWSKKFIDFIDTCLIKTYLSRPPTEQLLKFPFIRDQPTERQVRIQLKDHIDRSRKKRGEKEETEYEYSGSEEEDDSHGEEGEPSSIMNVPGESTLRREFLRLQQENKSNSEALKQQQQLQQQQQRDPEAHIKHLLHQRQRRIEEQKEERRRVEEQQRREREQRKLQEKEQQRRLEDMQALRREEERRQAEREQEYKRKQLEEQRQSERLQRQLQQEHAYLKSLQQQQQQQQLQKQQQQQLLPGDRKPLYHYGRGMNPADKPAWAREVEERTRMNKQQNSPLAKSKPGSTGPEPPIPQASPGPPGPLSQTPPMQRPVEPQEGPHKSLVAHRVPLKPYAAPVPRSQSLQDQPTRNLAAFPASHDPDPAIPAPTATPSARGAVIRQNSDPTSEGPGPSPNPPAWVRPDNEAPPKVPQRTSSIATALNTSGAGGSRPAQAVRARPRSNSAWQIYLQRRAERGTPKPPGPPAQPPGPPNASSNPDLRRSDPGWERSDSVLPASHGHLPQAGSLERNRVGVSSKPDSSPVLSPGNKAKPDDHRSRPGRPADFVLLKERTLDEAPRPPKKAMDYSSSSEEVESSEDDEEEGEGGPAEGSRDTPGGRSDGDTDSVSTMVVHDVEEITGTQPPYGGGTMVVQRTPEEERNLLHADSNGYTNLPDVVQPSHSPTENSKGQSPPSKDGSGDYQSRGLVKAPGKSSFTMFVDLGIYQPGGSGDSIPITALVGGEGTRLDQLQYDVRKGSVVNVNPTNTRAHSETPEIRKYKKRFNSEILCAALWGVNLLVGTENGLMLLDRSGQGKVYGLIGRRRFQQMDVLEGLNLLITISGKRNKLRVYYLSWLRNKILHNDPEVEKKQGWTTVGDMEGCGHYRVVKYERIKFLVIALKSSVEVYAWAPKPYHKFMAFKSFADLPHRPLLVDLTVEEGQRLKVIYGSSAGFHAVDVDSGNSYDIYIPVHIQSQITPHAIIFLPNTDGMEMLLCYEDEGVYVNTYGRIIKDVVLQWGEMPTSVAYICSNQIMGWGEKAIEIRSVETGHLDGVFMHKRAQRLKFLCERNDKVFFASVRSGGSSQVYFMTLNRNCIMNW

[6] = target: 468 kinases including some pathogenic mutants (Homo sapiens, UniProt Q13554); settings: CAMK2B (Entrez CAMK2B), 100 nM; read-out: Percent Control
[7] = target: 468 kinases including some pathogenic mutants (Homo sapiens, UniProt O15264); settings: p38-delta (Entrez MAPK13), 1000 nM; read-out: Percent Control
[8] = target: 468 kinases including some pathogenic mutants (Homo sapiens, UniProt Q9Y5S2); settings: MRCKB (Entrez CDC42BPB), 1000 nM; read-out: Percent Control
468 kinases including some pathogenic mutants (Homo sapiens, UniProt Q9Y5S2), sequence (Q9Y5S2 whole entry, change not shown): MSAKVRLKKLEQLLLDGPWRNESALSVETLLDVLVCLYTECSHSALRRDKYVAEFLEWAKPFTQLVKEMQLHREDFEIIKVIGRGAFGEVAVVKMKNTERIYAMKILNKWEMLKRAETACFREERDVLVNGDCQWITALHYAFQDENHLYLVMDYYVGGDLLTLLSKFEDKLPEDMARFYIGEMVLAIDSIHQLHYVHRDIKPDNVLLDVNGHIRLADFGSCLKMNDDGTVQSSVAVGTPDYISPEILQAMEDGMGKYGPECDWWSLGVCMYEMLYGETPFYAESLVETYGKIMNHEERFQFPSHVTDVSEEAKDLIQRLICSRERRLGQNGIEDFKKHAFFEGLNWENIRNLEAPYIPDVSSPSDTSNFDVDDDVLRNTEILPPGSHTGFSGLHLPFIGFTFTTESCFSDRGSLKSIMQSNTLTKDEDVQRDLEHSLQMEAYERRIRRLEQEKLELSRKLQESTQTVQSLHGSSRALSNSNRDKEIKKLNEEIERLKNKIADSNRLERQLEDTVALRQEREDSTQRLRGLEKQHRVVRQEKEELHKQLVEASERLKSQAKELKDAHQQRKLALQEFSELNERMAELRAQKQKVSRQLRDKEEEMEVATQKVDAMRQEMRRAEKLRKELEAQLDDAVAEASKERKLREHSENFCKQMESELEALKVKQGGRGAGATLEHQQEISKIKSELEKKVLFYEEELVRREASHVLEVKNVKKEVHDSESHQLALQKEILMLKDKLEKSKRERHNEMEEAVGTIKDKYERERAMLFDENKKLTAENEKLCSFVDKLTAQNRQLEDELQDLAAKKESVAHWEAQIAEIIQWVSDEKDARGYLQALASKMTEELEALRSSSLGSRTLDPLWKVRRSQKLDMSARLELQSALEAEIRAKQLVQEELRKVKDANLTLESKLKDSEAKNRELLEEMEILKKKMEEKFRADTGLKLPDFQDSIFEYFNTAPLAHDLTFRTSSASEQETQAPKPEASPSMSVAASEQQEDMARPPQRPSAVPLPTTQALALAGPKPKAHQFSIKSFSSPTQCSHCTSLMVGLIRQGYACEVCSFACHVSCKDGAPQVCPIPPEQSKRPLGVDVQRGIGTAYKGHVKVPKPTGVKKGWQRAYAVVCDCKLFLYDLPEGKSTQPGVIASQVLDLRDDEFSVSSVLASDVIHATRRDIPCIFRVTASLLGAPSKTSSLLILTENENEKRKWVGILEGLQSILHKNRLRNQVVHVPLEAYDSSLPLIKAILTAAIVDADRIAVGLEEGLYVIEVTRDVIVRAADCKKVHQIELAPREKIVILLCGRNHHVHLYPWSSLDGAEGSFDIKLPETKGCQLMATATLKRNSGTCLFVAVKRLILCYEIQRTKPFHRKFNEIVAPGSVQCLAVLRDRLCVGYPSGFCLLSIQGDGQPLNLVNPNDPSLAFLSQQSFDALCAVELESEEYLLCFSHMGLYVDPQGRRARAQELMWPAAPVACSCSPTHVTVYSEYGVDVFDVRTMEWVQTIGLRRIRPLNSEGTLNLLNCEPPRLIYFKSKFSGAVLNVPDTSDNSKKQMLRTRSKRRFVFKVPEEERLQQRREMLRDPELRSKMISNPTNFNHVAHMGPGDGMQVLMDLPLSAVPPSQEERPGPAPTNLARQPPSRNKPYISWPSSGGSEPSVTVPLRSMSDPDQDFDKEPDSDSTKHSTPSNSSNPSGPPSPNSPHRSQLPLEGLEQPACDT

[9] = target: 468 kinases including some pathogenic mutants (Homo sapiens, UniProt Q7KZI7); settings: MARK2 (Entrez MARK2), 100 nM; read-out: Percent Control
[10] = target: 468 kinases including some pathogenic mutants (Homo sapiens, UniProt P42338); settings: PIK3CB (Entrez PIK3CB), 100 nM; read-out: Percent Control
[11] = target: 468 kinases including some pathogenic mutants (Homo sapiens, UniProt P54762); settings: EPHB1 (Entrez EPHB1), 100 nM; read-out: Percent Control
[12] = target: 468 kinases including some pathogenic mutants (Homo sapiens, UniProt Q13043); settings: MST1 (Entrez STK4), 100 nM; read-out: Percent Control
[13] = target: 468 kinases including some pathogenic mutants (Homo sapiens, UniProt P08581, M1250T); settings: read-out: Percent Control
[14] = target: 468 kinases including some pathogenic mutants (Homo sapiens, UniProt Q9NRP7); settings: STK36 (Entrez STK36), 100 nM; read-out: Percent Control
[15] = target: 468 kinases including some pathogenic mutants (Homo sapiens, UniProt O43353); settings: RIPK2 (Entrez RIPK2), 100 nM; read-out: Percent Control
[16] = target: 468 kinases including some pathogenic mutants (Homo sapiens, UniProt Q96RR4); settings: CAMKK2 (Entrez CAMKK2), 100 nM; read-out: Percent Control
[17] = target: 468 kinases including some pathogenic mutants (Homo sapiens, UniProt P28482); settings: ERK2 (Entrez MAPK1), 100 nM; read-out: Percent Control
[18] = target: 468 kinases including some pathogenic mutants (Homo sapiens, UniProt P45984); settings: JNK2 (Entrez MAPK9), 100 nM; read-out: Percent Control
468 kinases including some pathogenic mutants (Homo sapiens, UniProt P45984), sequence (P45984 whole entry, change not shown): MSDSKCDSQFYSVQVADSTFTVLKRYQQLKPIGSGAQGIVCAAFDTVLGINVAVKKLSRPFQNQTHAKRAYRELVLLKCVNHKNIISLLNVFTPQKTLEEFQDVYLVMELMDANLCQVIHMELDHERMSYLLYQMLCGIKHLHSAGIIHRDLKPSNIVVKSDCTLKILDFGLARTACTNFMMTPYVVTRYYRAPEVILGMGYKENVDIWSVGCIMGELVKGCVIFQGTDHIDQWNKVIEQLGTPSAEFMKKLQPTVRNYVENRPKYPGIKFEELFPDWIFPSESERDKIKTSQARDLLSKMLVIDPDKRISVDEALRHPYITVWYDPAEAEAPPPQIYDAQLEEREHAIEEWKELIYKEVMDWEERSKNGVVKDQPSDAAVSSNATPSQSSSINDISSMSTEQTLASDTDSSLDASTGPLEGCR

[19] = target: 468 kinases including some pathogenic mutants (Homo sapiens, UniProt Q6P3R8); settings: NEK5 (Entrez NEK5), 100 nM; read-out: Percent Control
[20] = target: 468 kinases including some pathogenic mutants (Homo sapiens, UniProt P27448); settings: MARK3 (Entrez MARK3), 100 nM; read-out: Percent Control
[21] = target: 468 kinases including some pathogenic mutants (Homo sapiens, UniProt P42336); settings: PIK3CA (Entrez PIK3CA), 100 nM; read-out: Percent Control
[22] = target: 468 kinases including some pathogenic mutants (Homo sapiens, UniProt P43403); settings: ZAP70 (Entrez ZAP70), 1000 nM; read-out: Percent Control
468 kinases including some pathogenic mutants (Homo sapiens, UniProt P43403), sequence (P43403 whole entry, change not shown): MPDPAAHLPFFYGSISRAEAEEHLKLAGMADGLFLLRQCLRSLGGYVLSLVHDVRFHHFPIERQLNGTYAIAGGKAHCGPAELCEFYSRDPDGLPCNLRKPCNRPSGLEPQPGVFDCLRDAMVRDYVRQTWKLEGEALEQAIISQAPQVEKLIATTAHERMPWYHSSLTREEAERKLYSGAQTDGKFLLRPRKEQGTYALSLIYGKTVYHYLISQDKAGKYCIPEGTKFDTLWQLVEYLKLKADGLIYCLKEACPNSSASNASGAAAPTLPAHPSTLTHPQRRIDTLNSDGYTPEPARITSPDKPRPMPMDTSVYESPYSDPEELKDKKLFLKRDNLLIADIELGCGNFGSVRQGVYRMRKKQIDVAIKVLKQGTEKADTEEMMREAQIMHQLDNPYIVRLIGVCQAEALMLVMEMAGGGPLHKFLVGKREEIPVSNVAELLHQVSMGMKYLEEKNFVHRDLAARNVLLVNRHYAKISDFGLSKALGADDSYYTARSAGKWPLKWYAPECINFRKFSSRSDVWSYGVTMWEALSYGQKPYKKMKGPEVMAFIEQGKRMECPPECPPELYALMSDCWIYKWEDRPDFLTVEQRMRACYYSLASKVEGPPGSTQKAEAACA

[23] = target: 468 kinases including some pathogenic mutants (Homo sapiens, UniProt O60674); settings: JAK2(JH1domain-catalytic) (Entrez JAK2), 1000 nM; read-out: Percent Control
[24] = target: 468 kinases including some pathogenic mutants (Homo sapiens, UniProt O43293); settings: DAPK3 (Entrez DAPK3), 100 nM; read-out: Percent Control
[25] = target: 468 kinases including some pathogenic mutants (Homo sapiens, UniProt Q9UQM7); settings: CAMK2A (Entrez CAMK2A), 100 nM; read-out: Percent Control
[26] = target: 468 kinases including some pathogenic mutants (Homo sapiens, UniProt P78362); settings: SRPK2 (Entrez SRPK2), 1000 nM; read-out: Percent Control
468 kinases including some pathogenic mutants (Homo sapiens, UniProt P78362), sequence (P78362 whole entry, stated change not applied): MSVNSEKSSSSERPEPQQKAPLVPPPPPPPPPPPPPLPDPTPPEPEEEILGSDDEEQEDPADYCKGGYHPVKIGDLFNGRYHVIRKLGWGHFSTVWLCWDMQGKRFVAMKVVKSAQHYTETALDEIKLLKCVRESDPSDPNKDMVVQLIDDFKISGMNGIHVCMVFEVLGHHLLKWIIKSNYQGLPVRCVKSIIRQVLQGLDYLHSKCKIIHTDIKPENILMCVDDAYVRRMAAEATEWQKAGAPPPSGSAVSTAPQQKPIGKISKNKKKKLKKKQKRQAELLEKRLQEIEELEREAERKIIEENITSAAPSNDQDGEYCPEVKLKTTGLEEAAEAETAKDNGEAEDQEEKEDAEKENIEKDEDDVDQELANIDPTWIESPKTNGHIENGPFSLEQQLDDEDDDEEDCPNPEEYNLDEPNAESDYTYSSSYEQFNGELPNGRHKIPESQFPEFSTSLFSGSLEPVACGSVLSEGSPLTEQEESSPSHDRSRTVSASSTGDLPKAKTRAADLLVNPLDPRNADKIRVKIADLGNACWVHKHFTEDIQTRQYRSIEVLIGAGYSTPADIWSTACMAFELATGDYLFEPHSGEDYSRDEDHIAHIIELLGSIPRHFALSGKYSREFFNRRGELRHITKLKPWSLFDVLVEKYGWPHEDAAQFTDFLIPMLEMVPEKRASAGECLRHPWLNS

[27] = target: 468 kinases including some pathogenic mutants (Homo sapiens, UniProt P42336, Q546K); settings: read-out: Percent Control
[28] = target: 468 kinases including some pathogenic mutants (Homo sapiens, UniProt Q9Y2H1); settings: NDR2 (Entrez STK38L), 100 nM; read-out: Percent Control
[29] = target: 468 kinases including some pathogenic mutants (Homo sapiens, UniProt Q02156); settings: PRKCE (Entrez PRKCE), 1000 nM; read-out: Percent Control

## CN1C(=O)[C@@H](N2CCc3c(nn(Cc4ccccc4)c3C(N)=O)C2=O)COc2cc(Cl)ccc21 [Compound 10, (S)-2-benzyl-6-(8-chloro-5-methyl-4-oxo-2,3,4,5-tetrahydrobenzo[b][1,4]oxazepin-3-yl)-7-oxo-4,5,6,7-tetrahydro-2H-pyrazolo[3,4-c]pyridine-3-carboxamide]
[1]
  remaining activity at 0.1 µM: 78%
[2]
  remaining activity at 1 µM: 100%
[3]
  remaining activity at 0.1 µM: 78%
[4]
  remaining activity at 0.1 µM: 93%
[5]
  remaining activity at 0.1 µM: 94%
[6]
  remaining activity at 0.1 µM: 67%
[7]
  remaining activity at 1 µM: 100%
[8]
  remaining activity at 1 µM: 100%
[9]
  remaining activity at 0.1 µM: 78%
[10]
  remaining activity at 0.1 µM: 100%
[11]
  remaining activity at 0.1 µM: 95%
[12]
  remaining activity at 0.1 µM: 58%
[13]
  remaining activity at 0.1 µM: 80%
[14]
  remaining activity at 0.1 µM: 100%
[15]
  remaining activity at 0.1 µM: 87%
[16]
  remaining activity at 0.1 µM: 76%
[17]
  remaining activity at 0.1 µM: 77%
[18]
  remaining activity at 0.1 µM: 80%
[19]
  remaining activity at 0.1 µM: 87%
[20]
  remaining activity at 0.1 µM: 100%
[21]
  remaining activity at 0.1 µM: 71%
[22]
  remaining activity at 1 µM: 100%
[23]
  remaining activity at 1 µM: 100%
[24]
  remaining activity at 0.1 µM: 79%
[25]
  remaining activity at 0.1 µM: 76%
[26]
  remaining activity at 1 µM: 100%
[27]
  remaining activity at 0.1 µM: 76%
[28]
  remaining activity at 0.1 µM: 71%
[29]
  remaining activity at 1 µM: 100%
